Data as given in PubChem BioAssay AID248 (DTP/NCI, 2004).
Toxic doses and inconclusive results are not listed. No stated cut-off is given here; in the data, active means T/C of 150% or more; inactive means T/C below 125%.

Test system: L1210 leukemia ip in BDF1 mice, survival T/C
Assay: NCI In Vivo Anticancer Drug Screen. Data for tumor model L1210 Leukemia (intraperitoneal) in B6D2F1 (BDF1) mice
Conditions: endpoint: mean survival time, higher = longer survival
Procedure, shortened: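 Antitumor effect is assessed in tumor-bearing animals. Survival in the compound arm is compared with a vehicle-dosed control arm and expressed as their quotient.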

[1] = dose: 50.0 mg/kg/injection, schedule: Q01DX009 (ip), vehicle: Klucel (hydroxypropylcellulose) (HPC)
[2] = dose: 100.0 mg/kg/injection, schedule: Q01DX001 (ip), vehicle: carboxymethylcellulose (CMC)
[3] = dose: 200.0 mg/kg/injection, schedule: Q01DX001 (ip), vehicle: carboxymethylcellulose (CMC)
[4] = dose: 100.0 mg/kg/injection, schedule: Q04DX003 (ip), vehicle: Klucel (hydroxypropylcellulose) (HPC)
[5] = dose: 400.0 mg/kg/injection, schedule: Q04DX003 (ip), vehicle: Klucel (hydroxypropylcellulose) (HPC)
[6] = dose: 50.0 mg/kg/injection, schedule: Q01DX009 (ip), vehicle: saline with Tween-80
[7] = dose: 100.0 mg/kg/injection, schedule: Q01DX009 (ip), vehicle: saline with Tween-80
[8] = dose: 200.0 mg/kg/injection, schedule: Q01DX001 (ip), vehicle: saline
[9] = dose: 200.0 mg/kg/injection, schedule: Q04DX003 (ip), vehicle: Klucel (hydroxypropylcellulose) (HPC)

Measured: T/C

O=c1s[se]c2ccccc12
inactive: dose: 1.56 mg/kg/injection, schedule: Q01DX009 (ip), vehicle: Klucel (hydroxypropylcellulose) (HPC) 100 % of control | dose: 3.12 mg/kg/injection, schedule: Q01DX009 (ip), vehicle: Klucel (hydroxypropylcellulose) (HPC) 100 % of control | dose: 6.25 mg/kg/injection, schedule: Q01DX009 (ip), vehicle: Klucel (hydroxypropylcellulose) (HPC) 107 % of control | dose: 12.5 mg/kg/injection, schedule: Q01DX009 (ip), vehicle: Klucel (hydroxypropylcellulose) (HPC) 111 % of control | dose: 25.0 mg/kg/injection, schedule: Q01DX009 (ip), vehicle: Klucel (hydroxypropylcellulose) (HPC) 102 % of control | [1] 91 % of control

COC1=C(Cl)C(OC)(OC)C(Cl)=C1Cl
inactive: dose: 75.0 mg/kg/injection, schedule: Q01DX001 (ip), vehicle: carboxymethylcellulose (CMC) 107 % of control | dose: 150.0 mg/kg/injection, schedule: Q01DX001 (ip), vehicle: carboxymethylcellulose (CMC) 102 % of control | dose: 300.0 mg/kg/injection, schedule: Q01DX001 (ip), vehicle: carboxymethylcellulose (CMC) 104 % of control

O=C(Nc1ccccc1Br)c1ccc(Cl)cc1Cl
inactive: dose: 75.0 mg/kg/injection, schedule: Q01DX009 (ip), vehicle: Klucel (hydroxypropylcellulose) (HPC) 96 % of control | dose: 100.0 mg/kg/injection, schedule: Q04DX002 (ip), vehicle: Klucel (hydroxypropylcellulose) (HPC) 93 % of control | dose: 150.0 mg/kg/injection, schedule: Q01DX009 (ip), vehicle: Klucel (hydroxypropylcellulose) (HPC) 96 % of control | dose: 200.0 mg/kg/injection, schedule: Q04DX002 (ip), vehicle: Klucel (hydroxypropylcellulose) (HPC) 107 % of control | dose: 300.0 mg/kg/injection, schedule: Q01DX009 (ip), vehicle: Klucel (hydroxypropylcellulose) (HPC) 100 % of control | dose: 400.0 mg/kg/injection, schedule: Q04DX002 (ip), vehicle: Klucel (hydroxypropylcellulose) (HPC) 97 % of control

Cc1cccc(NC(=O)NCCO)c1
inactive: [2] 103 % of control | [3] 109 % of control | dose: 400.0 mg/kg/injection, schedule: Q01DX001 (ip), vehicle: carboxymethylcellulose (CMC) 97 % of control

C=CCNc1nc(C)ncc1C(=O)OCC
inactive: dose: 75.0 mg/kg/injection, schedule: Q04DX003 (ip), vehicle: saline with Tween-80 94 % of control | dose: 150.0 mg/kg/injection, schedule: Q04DX003 (ip), vehicle: saline with Tween-80 92 % of control | dose: 300.0 mg/kg/injection, schedule: Q04DX003 (ip), vehicle: saline with Tween-80 92 % of control

Cc1nc(N)nc(N)c1-c1ccc([N+](=O)[O-])cc1
inactive: [2] 95 % of control | [3] 95 % of control

COc1cc(OC)cc(C(N)=O)c1
inactive: [1] 88 % of control | dose: 100.0 mg/kg/injection, schedule: Q01DX009 (ip), vehicle: Klucel (hydroxypropylcellulose) (HPC) 97 % of control | [4] 86 % of control | dose: 200.0 mg/kg/injection, schedule: Q01DX009 (ip), vehicle: Klucel (hydroxypropylcellulose) (HPC) 91 % of control | [5] 86 % of control

CC(C)NNC(=O)c1ccccc1
inactive: dose: 25.0 mg/kg/injection, schedule: Q04DX002 (ip), vehicle: saline 109 % of control | dose: 50.0 mg/kg/injection, schedule: Q04DX002 (ip), vehicle: saline 120 % of control | dose: 100.0 mg/kg/injection, schedule: Q04DX002 (ip), vehicle: saline 109 % of control

CC(=O)c1cccc(NC(=S)NC(=O)/C=C/c2ccccc2)c1
inactive: [6] 92 % of control | [7] 94 % of control | dose: 100.0 mg/kg/injection, schedule: Q04DX003 (ip), vehicle: saline with Tween-80 100 % of control | dose: 200.0 mg/kg/injection, schedule: Q04DX003 (ip), vehicle: saline with Tween-80 103 % of control

C[C@]12C[C@H](O)[C@H]3[C@@H](CCC4=CC(=O)CC[C@@]43C)[C@@H]1CC[C@@H]2C(=O)CF
inactive: dose: 50.0 mg/kg/injection, schedule: Q01DX Z (sc), vehicle: steriod suspending solution 95 % of control | dose: 250.0 mg/kg/injection, schedule: Q01DX Z (sc), vehicle: steriod suspending solution 102 % of control | dose: 500.0 mg/kg/injection, schedule: Q01DX Z (sc), vehicle: steriod suspending solution 98 % of control

CCCCCN(CCCCC)CCC(=O)c1ccc2cc(Br)c3ccccc3c2c1
inactive: dose: 13.3 mg/kg/injection, schedule: Q01DX Z (ip), vehicle: methylcellulose (MC) 91 % of control | dose: 20.0 mg/kg/injection, schedule: Q01DX Z (ip), vehicle: methylcellulose (MC) 92 % of control | dose: 30.0 mg/kg/injection, schedule: Q01DX Z (ip), vehicle: methylcellulose (MC) 92 % of control

S=C(SNC1CCCCC1)SNC1CCCCC1
inactive: dose: 100.0 mg/kg/injection, schedule: Q01DX001 (ip), vehicle: saline 103 % of control | [4] 114 % of control | [8] 94 % of control | [9] 105 % of control | dose: 400.0 mg/kg/injection, schedule: Q01DX001 (ip), vehicle: saline 105 % of control | [5] 107 % of control

CCOP(=O)(OCC)Oc1c(Cl)c(Cl)c(OC(=O)Nc2cc(Cl)ccc2Cl)c(Cl)c1Cl
inactive: dose: 25.0 mg/kg/injection, schedule: Q04DX002 (ip), vehicle: saline with Tween-80 90 % of control | dose: 50.0 mg/kg/injection, schedule: Q04DX002 (ip), vehicle: saline with Tween-80 97 % of control | dose: 100.0 mg/kg/injection, schedule: Q04DX002 (ip), vehicle: saline with Tween-80 94 % of control

CC(=O)C(C(C)=O)c1cc(NS(=O)(=O)N(C)C)ccc1NS(=O)(=O)N(C)C
inactive: dose: 75.0 mg/kg/injection, schedule: Q04DX003 (ip), vehicle: Klucel (hydroxypropylcellulose) (HPC) 89 % of control | dose: 150.0 mg/kg/injection, schedule: Q04DX003 (ip), vehicle: Klucel (hydroxypropylcellulose) (HPC) 108 % of control | dose: 300.0 mg/kg/injection, schedule: Q04DX003 (ip), vehicle: Klucel (hydroxypropylcellulose) (HPC) 96 % of control

COc1ccc(OC)c(NC(=O)N(Cc2ccccc2)Cc2ccccc2)c1
inactive: [4] 93 % of control | [9] 87 % of control | [5] 88 % of control

Cc1ccc(S(=O)(=O)/C(Cl)=C(/Cl)S(=O)(=O)c2ccc(C)cc2)cc1
inactive: dose: 3.12 mg/kg/injection, schedule: Q01DX009 (ip), vehicle: saline 95 % of control | dose: 6.25 mg/kg/injection, schedule: Q01DX009 (ip), vehicle: saline 97 % of control | dose: 6.25 mg/kg/injection, schedule: Q04DX003 (ip), vehicle: saline 88 % of control | dose: 12.5 mg/kg/injection, schedule: Q01DX001 (ip), vehicle: saline 94 % of control | dose: 12.5 mg/kg/injection, schedule: Q01DX009 (ip), vehicle: saline with Tween-80 95 % of control | dose: 12.5 mg/kg/injection, schedule: Q04DX003 (ip), vehicle: saline 92 % of control | dose: 25.0 mg/kg/injection, schedule: Q01DX001 (ip), vehicle: saline 92 % of control | dose: 25.0 mg/kg/injection, schedule: Q01DX009 (ip), vehicle: saline with Tween-80 89 % of control | [8] 103 % of control

CN(C)c1ccc(/C=N\NC(=O)c2ccco2)cc1
inactive: dose: 200.0 mg/kg/injection, schedule: Q01DX001 (ip), vehicle: other 93 % of control | dose: 400.0 mg/kg/injection, schedule: Q01DX001 (ip), vehicle: other 90 % of control

O=C(O)CNC(=S)SCc1ccccc1
inactive: dose: 100.0 mg/kg/injection, schedule: Q04DX002 (ip), vehicle: gum acacia 97 % of control | dose: 200.0 mg/kg/injection, schedule: Q04DX002 (ip), vehicle: gum acacia 87 % of control | dose: 400.0 mg/kg/injection, schedule: Q04DX002 (ip), vehicle: gum acacia 97 % of control

COC(=O)Nc1cc2c3c(c1)CCCN3CCC2
inactive: [6] 91 % of control | [7] 96 % of control
